Laboratory results reported in patent US10160748B2 (AbbVie Inc., priority 2015, dated 2018).
Where two headings read alike, the source gives them in different places.

Molecular target: TNFα trimer (Homo sapiens, UniProt P01375)
Experiment: TNFα FP Competitive Binding Assay
Conditions: read-out: TNF IC50
Summary of the method: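 Compounds in 12-point 1:3 series, final top 100 μM (2.0% DMSO) or 338 μM (3.4% DMSO), displace 1 nM fluorescent probe from 20 nM TNFα trimer. After 18-24 h incubation plus 1 h rt equilibration, background-subtracted polarization measured and curves fitted with variable slope.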

[1] = FP binding assay, 20 nM TNFα trimer, 1 nM OregonGreen488 probe

TNFα trimer, sequence (P01375 77-233 limits assumed): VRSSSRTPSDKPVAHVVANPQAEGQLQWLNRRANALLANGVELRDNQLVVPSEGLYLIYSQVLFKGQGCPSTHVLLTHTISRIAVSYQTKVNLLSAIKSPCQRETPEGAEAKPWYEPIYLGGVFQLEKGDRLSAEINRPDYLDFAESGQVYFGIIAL

SMILES | IC50 [1] | IC50
Cn1c(=O)c2ccc(-c3cnc(N4CCN5C(=O)NC[C@H]5C4)nc3)cc2n1Cc1cc(CO)ccc1OC(F)F [Example 18, (S)-7-(5-(1-(2-(Difluoromethoxy)-5-(hydroxymethyl)benzyl)-2-methyl-3-oxo-2,3-dihydro-1H-indazol-6-yl)pyrimidin-2-yl)hexahydroimidazo[1,5-a]pyrazin-3(2H)-one] | < 1000 nM | 
Cn1c(=O)c2ccc(-c3cnc(CN4CC(C(=O)O)C4)nc3)cc2n1Cc1ccccc1OC(F)F [Example 4, 1-((5-(1-(2-(Difluoromethoxy)benzyl)-2-methyl-3-oxo-2,3-dihydro-1H-indazol-6-yl)pyrimidin-2-yl)methyl)azetidine-3-carboxylic acid] | > 10000 nM | 
Cc1cccc(C(C)n2c3cc(-c4cnc(N5CCN(C(=O)CO)[C@H](C)C5)nc4)ccc3c(=O)n2C)c1 (stereo partly drawn) [Example 116, 6-(2-((R)-4-(2-hydroxyacetyl)-3-methylpiperazin-1-yl)pyrimidin-5-yl)-2-methyl-1-(1-(m-tolyl)ethyl)-1H-indazol-3(2H)-one] | < 1000 nM | 
Cn1c(=O)c2ccc(-c3nc(N4CCOCC4)no3)cc2n1Cc1ccccc1OC(F)F [Example 13, 1-(2-(Difluoromethoxy)benzyl)-2-methyl-6-(3-morpholino-1,2,4-oxadiazol-5-yl)-1H-indazol-3(2H)-one] | 1000 to 10000 nM | 
CN(C)C(=O)OCc1ccc(OC(F)F)c(Cn2c3cc(-c4cnc(N5CCN6C(=O)NC[C@@H]6C5)nc4)ccc3c(=O)n2C)c1 [Example 67, (R)-4-(Difluoromethoxy)-3-((2-methyl-3-oxo-6-(2-(3-oxohexahydroimidazo[1,5-a]pyrazin-7(1H)-yl)pyrimidin-5-yl)-2,3-dihydro-1H-indazol-1-yl)methyl)benzyldimethylcarbamate] | < 1000 nM | 
Cn1c(=O)c2ccc(-c3cnc(N[C@H]4CCNC(=O)C4)nc3)cc2n1Cc1cc(CO)ccc1OC(F)F (single isomer, unassigned) [Example 25] | < 1000 nM | 
O=c1c2ccc(-c3cnc(N4CCOCC4)nc3)cc2n(Cc2ccccc2OC(F)F)n1C1CC1 [Example 11, 2-Cyclopropyl-1-(2-(difluoromethoxy)benzyl)-6-(2-morpholinopyrimidin-5-yl)-1H-indazol-3(2H)-one] | 1000 to 10000 nM | 
CCn1c(=O)c2ccc(-c3cnc(N4CCOCC4)nc3)cc2n1Cc1ccccc1OC(F)F [Example 10, 1-(2-(Difluoromethoxy)benzyl)-2-ethyl-6-(2-morpholinopyrimidin-5-yl)-1H-indazol-3(2H)-one] | 1000 to 10000 nM | 
Cc1ccc(OC(F)F)c(Cn2c3cc(-c4cnc(C(C)(C)N)nc4)ccc3c(=O)n2C)c1 [Example 120, 6-(2-(2-Aminopropan-2-yl)pyrimidin-5-yl)-1-(2-(difluoromethoxy)-5-methylbenzyl)-2-methyl-1H-indazol-3(2H)-one] | < 1000 nM | 
C[C@@H]1CN(c2ccc(-c3cc4c(cc3F)c(=O)n(C)n4Cc3ccccc3OC(F)F)cn2)CCN1C(=O)CO [Example 60, (R)-1-(2-(Difluoromethoxy)benzyl)-5-fluoro-6-(6-(4-(2-hydroxyacetyl)-3-methylpiperazin-1-yl)pyridin-3-yl)-2-methyl-1H-indazol-3(2H)-one] | < 1000 nM | 
Cc1ccc(OC(F)F)c(Cn2c3cc(-c4cnc(C(C)C)nc4)ccc3c(=O)n2C)c1 [Example 124, 1-(2-(Difluoromethoxy)-5-methylbenzyl)-6-(2-isopropylpyrimidin-5-yl)-2-methyl-1H-indazol-3(2H)-one] | < 1000 nM | 
Cn1c(=O)c2ccc(-c3cnc(N4CCN(C=O)CC4)nc3)cc2n1Cc1cc(CO)ccc1OC(F)F [Example 29, 4-(5-(1-(2-(Difluoromethoxy)-5-(hydroxymethyl)benzyl)-2-methyl-3-oxo-2,3-dihydro-1H-indazol-6-yl)pyrimidin-2-yl)piperazine-1-carbaldehyde] | < 1000 nM | 
CC(=O)N1CCN(c2ncc(-c3ccc4c(=O)n(C)n(Cc5nc(C)ccc5C(F)(F)F)c4n3)cn2)C[C@H]1C [Example 73, (R)-6-(2-(4-Acetyl-3-methylpiperazin-1-yl)pyrimidin-5-yl)-2-methyl-1-((6-methyl-3-(trifluoromethyl)pyridin-2-yl)methyl)-1H-pyrazolo[3,4-b]pyridin-3(2H)-one] | < 1000 nM | 

Results, then the compound that gave them:

IC50 [1] | IC50 | SMILES
< 1000 nM |  | Cn1c(=O)c2ccc(-c3cnc(N4CCOCC4)nc3)cc2n1Cc1cc(Cl)ccc1Cl [Example 7.1]
> 10000 nM |  | Cn1c(=O)c2ccc(-c3cnc(N4CCOCC4)nc3)cc2n1C(=O)c1ccccc1 [Example 1.8]
> 10000 nM |  | Cn1c(=O)c2ccc(-c3cnc(N4CCOCC4)nc3)cc2n1CCc1ccccc1F [Example 1.13]
 | 1000 to 10000 nM | C[C@H](O)CNc1ccc(Cl)c(Cn2c3cc(-c4cnc(C(C)(C)O)nc4)ccc3c(=O)n2C)c1 [Example 30.1]
< 1000 nM |  | Cc1ccc(C(F)(F)F)c(Cn2c3cc(-c4cnc(N5CCN(C(=O)CO)[C@H](C)C5)nc4)ccc3c(=O)n2C)n1 [Example 19.3]
1000 to 10000 nM |  | Cn1c(=O)c2ccc(-c3cnc(N4CCNCC4)nc3)cc2n1Cc1cc(Cl)ccc1Cl [Example 14.2]
1000 to 10000 nM |  | CC(=O)N1CC(Cc2ccc(OC(F)F)c(Cn3c4cc(-c5cnc(C(C)(C)O)nc5)c(F)cc4c(=O)n3C)c2)C1 [Example 26.6]
1000 to 10000 nM |  | Cn1c(=O)c2ccc(-c3cnc(N4CCNC(=O)C4)nc3)cc2n1Cc1ccccc1OC(F)F [Example 5.1]
> 10000 nM |  | Cn1c(=O)c2ccc(-c3cnc(N4CC[C@@H](C(=O)O)C4)nc3)cc2n1Cc1ccccc1OC(F)F [Example 2.6]
< 1000 nM |  | C[C@H]1CN(C(=O)CO)CCN1c1ncc(-c2ccc3c(=O)n(C)n(Cc4ccccc4OC(F)F)c3c2)cn1 [Example 10.17]
< 1000 nM |  | CCC(c1cccc(C)c1)n1c2cc(-c3cnc(N4CCN(C(=O)CO)[C@H](C)C4)nc3)ccc2c(=O)n1C (stereo partly drawn) [Example 24.3]
